In paper PMC12300041, “Tricyclic Isatin Derivatives as Anti-Inflammatory Compounds with High Kinase Binding Affinity” (Molecules, 2025):

Legend:
[1] = test system: proinflammatory cytokine production; assay: Multiplex human cytokine ELISA, LPS-stimulated MonoMac-6 cells; format: cell-based; details: 10 μM compound, 24 h, versus DMSO-treated control
Source text: A multiplex human cytokine ELISA kit from Anogen (Mississauga, ON, Canada) was used to evaluate various cytokines (IL-1α, IL-1β, IL-6, GM-CSF, MCP-1, IFN-γ, and TNF) in the supernatants of MonoMac-6 cells.

kinases = assay: Published kinase profile of SP600125, selectivity score; format: binding; details: from published kinase profile; 39/119
HIPK2 = target: T1, HIPK2 (Homo sapiens, UniProt Q9H2X6); assay: KINOMEscan; format: binding; details: HIPK2; N.B.: no binding at concentrations up to 30 µM
T1 construct: purchased Eurofins Pharma Discovery (KINOMEscan)
Description: (§1) Kinase profiling was performed by KINOMEscan (Eurofins Pharma Discovery, San Diego, CA, USA), using a panel of 423 protein kinases, as described previously. Compounds were submitted for dissociation constant (Kd) determination toward several target kinases using KINOMEscan. […] Binding reactions were performed at room temperature for 1 h, and the fraction of kinase not bound to the test compound was determined by capture with an immobilized affinity ligand and quantified by quantitative polymerase chain reaction. The primary screening at fixed concentrations of the compound was performed in duplicate. For dissociation constant Kd determination, a 12-point half-log dilution series (a maximum concentration of 33 μM) was used.

PIM1 = target: T2, PIM1 (Homo sapiens, UniProt P11309); assay: KINOMEscan; format: binding; details: PIM1; N.B.: no binding at concentrations up to 30 µM
T2 construct: purchased Eurofins Pharma Discovery (KINOMEscan)
T2 sequence (P11309 whole entry): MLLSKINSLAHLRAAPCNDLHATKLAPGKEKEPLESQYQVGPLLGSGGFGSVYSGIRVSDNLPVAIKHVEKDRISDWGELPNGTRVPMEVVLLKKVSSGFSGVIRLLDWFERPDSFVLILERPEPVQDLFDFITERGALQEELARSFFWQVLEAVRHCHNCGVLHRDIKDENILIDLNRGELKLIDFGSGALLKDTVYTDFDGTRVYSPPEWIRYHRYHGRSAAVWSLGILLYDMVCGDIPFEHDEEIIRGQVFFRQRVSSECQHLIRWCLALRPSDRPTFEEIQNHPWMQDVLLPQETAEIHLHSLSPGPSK
Description: as §1

NEK10 = target: T3, NEK10 (Homo sapiens, UniProt Q6ZWH5); assay: KINOMEscan; format: binding; details: NEK10; N.B.: no binding at concentrations up to 30 µM
T3 construct: purchased Eurofins Pharma Discovery (KINOMEscan)
T3 sequence (Q6ZWH5 1-1172): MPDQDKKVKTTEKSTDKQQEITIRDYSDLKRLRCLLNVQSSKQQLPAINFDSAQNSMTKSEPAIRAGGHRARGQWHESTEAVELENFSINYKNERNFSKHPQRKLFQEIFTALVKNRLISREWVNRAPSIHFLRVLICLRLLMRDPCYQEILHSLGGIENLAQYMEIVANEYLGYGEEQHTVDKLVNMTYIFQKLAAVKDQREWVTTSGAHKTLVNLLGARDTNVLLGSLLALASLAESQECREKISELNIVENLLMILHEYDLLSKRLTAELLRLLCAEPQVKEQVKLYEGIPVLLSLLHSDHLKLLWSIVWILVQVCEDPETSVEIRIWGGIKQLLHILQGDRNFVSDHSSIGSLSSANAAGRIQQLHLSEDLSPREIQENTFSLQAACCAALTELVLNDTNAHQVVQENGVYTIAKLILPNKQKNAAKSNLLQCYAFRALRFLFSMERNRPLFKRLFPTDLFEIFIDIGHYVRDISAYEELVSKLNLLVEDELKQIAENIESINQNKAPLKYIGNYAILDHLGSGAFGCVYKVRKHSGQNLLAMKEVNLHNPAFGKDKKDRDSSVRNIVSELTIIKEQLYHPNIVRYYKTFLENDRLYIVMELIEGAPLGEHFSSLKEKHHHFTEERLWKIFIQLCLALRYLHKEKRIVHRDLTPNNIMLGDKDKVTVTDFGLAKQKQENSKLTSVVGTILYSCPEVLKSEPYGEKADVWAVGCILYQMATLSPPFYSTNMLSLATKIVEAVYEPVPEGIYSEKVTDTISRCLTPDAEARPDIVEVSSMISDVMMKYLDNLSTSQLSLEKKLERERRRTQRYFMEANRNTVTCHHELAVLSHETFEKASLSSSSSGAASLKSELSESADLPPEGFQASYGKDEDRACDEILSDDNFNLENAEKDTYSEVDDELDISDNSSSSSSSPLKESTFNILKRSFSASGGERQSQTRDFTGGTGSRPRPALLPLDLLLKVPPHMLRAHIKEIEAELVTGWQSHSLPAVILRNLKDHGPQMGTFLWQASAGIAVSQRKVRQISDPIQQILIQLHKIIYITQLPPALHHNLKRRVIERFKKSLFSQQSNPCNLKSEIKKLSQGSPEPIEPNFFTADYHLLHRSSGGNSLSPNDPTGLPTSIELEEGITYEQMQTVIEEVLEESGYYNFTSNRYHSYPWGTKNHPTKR
Description: as §1

IRAK1 = target: T4, IRAK1 (Homo sapiens, UniProt P51617); assay: KINOMEscan; format: binding; details: IRAK1; N.B.: no binding at concentrations up to 30 µM
T4 construct: purchased Eurofins Pharma Discovery (KINOMEscan)
T4 sequence (P51617 whole entry): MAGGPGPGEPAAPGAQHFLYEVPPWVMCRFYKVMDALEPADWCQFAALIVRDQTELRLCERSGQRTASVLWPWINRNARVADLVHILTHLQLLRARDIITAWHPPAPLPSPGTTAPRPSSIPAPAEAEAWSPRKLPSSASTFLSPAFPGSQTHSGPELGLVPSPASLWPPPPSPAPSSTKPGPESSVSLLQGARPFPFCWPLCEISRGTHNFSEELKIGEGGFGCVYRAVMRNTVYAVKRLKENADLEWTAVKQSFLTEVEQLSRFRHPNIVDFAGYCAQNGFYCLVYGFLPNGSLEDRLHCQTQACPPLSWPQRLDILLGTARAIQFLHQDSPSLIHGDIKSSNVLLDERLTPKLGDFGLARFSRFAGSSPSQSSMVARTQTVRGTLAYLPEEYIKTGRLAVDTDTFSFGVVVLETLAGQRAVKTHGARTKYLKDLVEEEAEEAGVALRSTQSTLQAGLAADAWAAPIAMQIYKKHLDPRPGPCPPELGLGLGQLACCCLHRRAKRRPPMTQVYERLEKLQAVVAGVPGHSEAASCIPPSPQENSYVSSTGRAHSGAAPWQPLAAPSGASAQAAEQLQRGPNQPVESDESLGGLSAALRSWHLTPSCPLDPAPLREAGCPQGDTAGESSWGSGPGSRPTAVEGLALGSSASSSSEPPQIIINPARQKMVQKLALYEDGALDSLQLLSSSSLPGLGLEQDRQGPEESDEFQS
Description: as §1

HIPK3 = target: T5, HIPK3 (Homo sapiens, UniProt Q9H422); assay: KINOMEscan; format: binding; details: HIPK3; N.B.: no binding at concentrations up to 30 µM
T5 construct: purchased Eurofins Pharma Discovery (KINOMEscan)
T5 sequence (Q9H422 whole entry): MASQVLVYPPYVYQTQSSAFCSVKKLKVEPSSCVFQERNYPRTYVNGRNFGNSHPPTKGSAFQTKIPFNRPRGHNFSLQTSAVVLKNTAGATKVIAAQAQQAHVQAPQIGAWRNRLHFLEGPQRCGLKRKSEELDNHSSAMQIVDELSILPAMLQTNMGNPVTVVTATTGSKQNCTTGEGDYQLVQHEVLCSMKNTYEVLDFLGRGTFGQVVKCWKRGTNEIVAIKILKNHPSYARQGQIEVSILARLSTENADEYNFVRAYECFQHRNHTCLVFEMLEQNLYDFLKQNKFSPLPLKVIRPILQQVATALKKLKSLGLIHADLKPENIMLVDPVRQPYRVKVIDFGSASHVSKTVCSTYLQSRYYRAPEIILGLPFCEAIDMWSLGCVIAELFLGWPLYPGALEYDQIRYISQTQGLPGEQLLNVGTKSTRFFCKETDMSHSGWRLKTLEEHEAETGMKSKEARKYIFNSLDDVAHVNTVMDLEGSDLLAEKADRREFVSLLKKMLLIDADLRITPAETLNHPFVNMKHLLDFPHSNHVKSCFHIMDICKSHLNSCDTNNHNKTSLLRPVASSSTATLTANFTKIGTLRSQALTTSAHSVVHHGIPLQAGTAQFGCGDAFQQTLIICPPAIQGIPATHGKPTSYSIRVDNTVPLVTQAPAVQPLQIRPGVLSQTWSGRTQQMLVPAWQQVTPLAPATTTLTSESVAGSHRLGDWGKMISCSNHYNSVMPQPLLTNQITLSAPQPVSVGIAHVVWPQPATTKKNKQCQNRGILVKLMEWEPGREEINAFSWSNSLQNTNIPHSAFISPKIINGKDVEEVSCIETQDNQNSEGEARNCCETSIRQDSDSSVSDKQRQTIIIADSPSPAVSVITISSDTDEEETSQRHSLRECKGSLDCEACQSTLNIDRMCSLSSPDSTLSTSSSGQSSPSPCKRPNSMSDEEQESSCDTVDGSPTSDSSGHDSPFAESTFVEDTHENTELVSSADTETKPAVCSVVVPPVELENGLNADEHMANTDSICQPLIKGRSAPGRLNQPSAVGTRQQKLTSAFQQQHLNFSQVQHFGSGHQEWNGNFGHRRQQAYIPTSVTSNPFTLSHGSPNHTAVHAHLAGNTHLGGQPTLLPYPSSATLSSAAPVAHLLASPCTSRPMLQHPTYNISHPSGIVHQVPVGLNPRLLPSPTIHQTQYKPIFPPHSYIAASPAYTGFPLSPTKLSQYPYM
Description: as §1

DYRK1A = target: T6, DYRK1A (Homo sapiens, UniProt Q13627); assay: KINOMEscan; format: binding; details: DYRK1A; N.B.: no binding at concentrations up to 30 µM
T6 construct: purchased Eurofins Pharma Discovery (KINOMEscan)
Description: as §1

DYRK1B = target: T7, DYRK1B (Homo sapiens, UniProt Q9Y463); assay: KINOMEscan; format: binding; details: DYRK1B; N.B.: no binding at concentrations up to 30 µM
T7 construct: purchased Eurofins Pharma Discovery (KINOMEscan)
T7 sequence (Q9Y463 whole entry): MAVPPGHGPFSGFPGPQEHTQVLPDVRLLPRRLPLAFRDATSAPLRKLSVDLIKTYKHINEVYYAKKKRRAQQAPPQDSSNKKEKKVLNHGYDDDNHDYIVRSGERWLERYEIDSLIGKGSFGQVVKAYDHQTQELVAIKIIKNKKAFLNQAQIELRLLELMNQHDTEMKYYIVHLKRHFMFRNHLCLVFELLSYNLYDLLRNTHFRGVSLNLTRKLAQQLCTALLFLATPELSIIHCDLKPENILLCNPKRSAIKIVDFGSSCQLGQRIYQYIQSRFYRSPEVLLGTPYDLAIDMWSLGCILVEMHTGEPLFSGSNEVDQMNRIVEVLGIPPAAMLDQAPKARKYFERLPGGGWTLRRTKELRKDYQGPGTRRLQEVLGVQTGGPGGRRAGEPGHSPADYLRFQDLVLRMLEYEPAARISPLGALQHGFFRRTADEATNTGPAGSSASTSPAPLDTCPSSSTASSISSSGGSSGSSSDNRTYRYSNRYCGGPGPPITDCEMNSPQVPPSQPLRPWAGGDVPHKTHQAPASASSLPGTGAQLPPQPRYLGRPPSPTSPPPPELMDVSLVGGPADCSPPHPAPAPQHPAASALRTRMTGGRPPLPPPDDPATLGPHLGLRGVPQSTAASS
Description: as §1

DAPK3 = target: T8, DAPK3 (Homo sapiens, UniProt O43293); assay: KINOMEscan; format: binding; details: DAPK3; N.B.: no binding at concentrations up to 30 µM
T8 construct: purchased Eurofins Pharma Discovery (KINOMEscan)
T8 sequence (O43293 whole entry): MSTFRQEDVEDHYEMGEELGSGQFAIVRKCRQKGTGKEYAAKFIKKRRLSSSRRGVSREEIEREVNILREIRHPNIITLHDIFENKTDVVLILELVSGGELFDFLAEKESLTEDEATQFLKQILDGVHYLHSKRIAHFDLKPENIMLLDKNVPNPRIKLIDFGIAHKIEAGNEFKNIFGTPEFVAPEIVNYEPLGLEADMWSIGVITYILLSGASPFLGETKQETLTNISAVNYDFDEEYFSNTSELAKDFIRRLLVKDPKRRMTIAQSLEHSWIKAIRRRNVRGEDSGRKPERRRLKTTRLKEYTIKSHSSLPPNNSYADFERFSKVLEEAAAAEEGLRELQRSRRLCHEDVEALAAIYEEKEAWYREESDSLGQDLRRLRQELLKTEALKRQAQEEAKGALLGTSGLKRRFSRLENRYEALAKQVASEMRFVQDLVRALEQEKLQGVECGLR
Description: as §1

HASPIN = target: T9, HASPIN (Homo sapiens, UniProt Q8TF76); assay: KINOMEscan; format: binding; details: Haspin; N.B.: no binding at concentrations up to 30 µM
T9 construct: purchased Eurofins Pharma Discovery (KINOMEscan)
T9 sequence (Q8TF76 1-798): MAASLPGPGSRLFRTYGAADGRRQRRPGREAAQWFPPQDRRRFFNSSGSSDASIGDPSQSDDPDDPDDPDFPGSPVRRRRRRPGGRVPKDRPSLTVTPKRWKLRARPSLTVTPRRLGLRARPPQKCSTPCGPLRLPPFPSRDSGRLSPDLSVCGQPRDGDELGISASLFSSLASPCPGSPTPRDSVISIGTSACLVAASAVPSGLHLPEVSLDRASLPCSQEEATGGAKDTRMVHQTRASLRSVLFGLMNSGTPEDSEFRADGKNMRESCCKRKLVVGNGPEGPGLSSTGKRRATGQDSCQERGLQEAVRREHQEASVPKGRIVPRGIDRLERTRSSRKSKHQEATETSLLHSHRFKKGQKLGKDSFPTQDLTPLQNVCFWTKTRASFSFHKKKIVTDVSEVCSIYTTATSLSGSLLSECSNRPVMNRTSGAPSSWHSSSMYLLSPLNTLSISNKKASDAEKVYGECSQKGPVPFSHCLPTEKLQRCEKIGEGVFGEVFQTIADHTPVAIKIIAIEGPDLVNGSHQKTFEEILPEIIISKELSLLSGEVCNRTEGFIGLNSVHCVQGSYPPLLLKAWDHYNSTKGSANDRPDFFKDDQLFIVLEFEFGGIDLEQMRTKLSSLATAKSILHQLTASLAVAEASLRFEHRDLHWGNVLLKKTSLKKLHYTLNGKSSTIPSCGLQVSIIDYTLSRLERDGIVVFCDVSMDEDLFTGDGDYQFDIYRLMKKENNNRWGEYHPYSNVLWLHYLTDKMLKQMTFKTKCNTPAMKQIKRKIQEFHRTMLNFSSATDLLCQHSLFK
Description: as §1

HIPK1 = target: T10, HIPK1 (Homo sapiens, UniProt Q86Z02); assay: KINOMEscan; format: binding; details: HIPK1; N.B.: no binding at concentrations up to 30 µM
T10 construct: purchased Eurofins Pharma Discovery (KINOMEscan)
Description: as §1

DAPK1 = target: T11, DAPK1 (Homo sapiens, UniProt P53355); assay: KINOMEscan; format: binding; details: DAPK1; N.B.: no binding at concentrations up to 30 µM
T11 construct: purchased Eurofins Pharma Discovery (KINOMEscan)
T11 sequence (P53355 whole entry): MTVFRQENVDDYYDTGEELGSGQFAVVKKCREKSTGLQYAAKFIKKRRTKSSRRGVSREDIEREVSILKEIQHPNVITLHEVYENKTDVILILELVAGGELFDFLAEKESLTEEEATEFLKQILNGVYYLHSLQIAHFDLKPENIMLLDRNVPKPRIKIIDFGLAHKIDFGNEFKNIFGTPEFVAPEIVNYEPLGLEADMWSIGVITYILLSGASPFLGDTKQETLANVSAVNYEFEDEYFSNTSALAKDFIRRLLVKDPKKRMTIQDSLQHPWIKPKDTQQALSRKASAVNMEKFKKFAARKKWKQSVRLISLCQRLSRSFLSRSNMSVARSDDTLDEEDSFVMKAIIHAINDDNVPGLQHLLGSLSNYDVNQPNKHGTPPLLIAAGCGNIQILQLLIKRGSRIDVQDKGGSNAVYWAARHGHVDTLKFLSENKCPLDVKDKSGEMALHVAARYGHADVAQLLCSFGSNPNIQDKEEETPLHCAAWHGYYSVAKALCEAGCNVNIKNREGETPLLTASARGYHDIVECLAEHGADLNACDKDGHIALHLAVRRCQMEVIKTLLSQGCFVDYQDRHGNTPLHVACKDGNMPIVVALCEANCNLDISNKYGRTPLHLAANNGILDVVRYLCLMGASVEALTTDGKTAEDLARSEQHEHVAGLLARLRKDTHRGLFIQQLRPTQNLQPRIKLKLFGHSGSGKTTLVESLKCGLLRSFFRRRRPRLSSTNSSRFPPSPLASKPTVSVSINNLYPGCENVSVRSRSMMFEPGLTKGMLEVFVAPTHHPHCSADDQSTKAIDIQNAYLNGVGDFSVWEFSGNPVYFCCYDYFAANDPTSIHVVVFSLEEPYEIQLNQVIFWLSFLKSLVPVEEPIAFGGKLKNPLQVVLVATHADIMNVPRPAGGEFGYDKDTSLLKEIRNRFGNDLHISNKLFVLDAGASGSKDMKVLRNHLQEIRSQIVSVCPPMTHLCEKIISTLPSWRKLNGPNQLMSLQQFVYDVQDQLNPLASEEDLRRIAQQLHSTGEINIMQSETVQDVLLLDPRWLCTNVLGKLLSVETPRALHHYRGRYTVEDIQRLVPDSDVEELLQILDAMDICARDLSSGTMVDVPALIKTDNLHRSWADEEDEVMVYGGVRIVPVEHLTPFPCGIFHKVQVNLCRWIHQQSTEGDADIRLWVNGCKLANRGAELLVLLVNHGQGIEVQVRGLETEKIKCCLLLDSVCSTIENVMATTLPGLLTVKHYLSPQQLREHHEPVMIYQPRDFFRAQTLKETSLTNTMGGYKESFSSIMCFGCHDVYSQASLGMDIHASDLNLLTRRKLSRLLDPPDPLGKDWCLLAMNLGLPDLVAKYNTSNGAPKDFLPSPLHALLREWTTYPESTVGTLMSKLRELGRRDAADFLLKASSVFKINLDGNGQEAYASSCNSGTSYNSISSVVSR
Description: as §1

DAPK2 = target: T12, DAPK2 (Homo sapiens, UniProt Q9UIK4); assay: KINOMEscan; format: binding; details: DAPK2; N.B.: no binding at concentrations up to 30 µM
T12 construct: purchased Eurofins Pharma Discovery (KINOMEscan)
Description: as §1

[2] = Cytotoxicity, CellTiter-Glo; format: cell-based, human; details: human, MonoMac-6 cells; 24 h incubation; N.T.: no cytotoxicity at concentrations up to 50 µM
MonoMac-6 Cells = assay: Cytotoxicity, CellTiter-Glo; format: cell-based, human; details: 24 h incubation; N.T.: no cytotoxicity at concentrations up to 50 µM
[3] = Cytotoxicity, CellTiter-Glo; format: cell-based, human; details: human, THP-1Blue cells; 24 h incubation; N.T.: no cytotoxicity at concentrations up to 50 µM
Description: (§2) Cytotoxicity was analyzed with a CellTiter-Glo Luminescent Cell Viability Assay Kit from Promega (Madison, WI, USA) according to the manufacturer’s protocol. THP-1Blue cells were treated with varying concentrations of the test compounds (up to 50 µM) and cultivated for 24 h. After treatment, the cells were allowed to equilibrate to room temperature for 30 min, the substrate was added, and the samples were analyzed with a Fluoroscan Ascent FL (Thermo Fisher Scientific, Waltham, MA, USA).

THP-1 Cells = assay: Cytotoxicity, CellTiter-Glo; format: cell-based, human; details: 24 h incubation; N.T.: no cytotoxicity at concentrations up to 50 µM
Description: as §2

Compound: CON=C1C(=O)Nc2c1cc([N+](=O)[O-])c1c2CCCC1 [Compound 5e, 3-(Methoxyimino)-5-nitro-1,3,6,7,8,9-hexahydro-2H-benzo[g]indol-2-one]
- inhibition of secretion of IL-1α, IL-1β, IL-6, TNF and MCP-1 [1]: ineffective

Compound: CON=C1C(=O)Nc2c1ccc1c2CCCC1 [Compound 5b, 3-(Methoxyimino)-1,3,6,7,8,9-hexahydro-2H-benzo[g]indol-2-one]
- inhibition of secretion of IL-1α, IL-1β, IL-6, TNF and MCP-1 [1]: ineffective

Compound: Oc1c2ccccc2c2c3c(cccc13)N=N2 [SP600125]
- selectivity score, S(10) (kinases): 0.328

Compound: CCN1CCc2c(-c3ccccc3)cc3c(c2C1)NC(=O)C3=NO [NS-383, 8-ethyl-6,7,8,9-tetrahydro-5-phenyl-1H-pyrrolo[3,2-h]isoquinolin-2,3-dione-3-oxime, reference compound]
- Kd (µM) (HIPK2): N.B.
- Kd (PIM1): 14 ± 0.7 µM
- Kd (µM) (NEK10): N.B.
- Kd (µM) (IRAK1): N.B.
- Kd (µM) (HIPK3): N.B.
- Kd (µM) (DYRK1A): N.B.
- Kd (µM) (DYRK1B): N.B.
- Kd (µM) (DAPK3): N.B.
- Kd (µM) (HASPIN): N.B.
- Kd (µM) (HIPK1): N.B.
- Kd (µM) (DAPK1): N.B.
- Kd (µM) (DAPK2): N.B.
- IC50 at 24 h [2]: 21.2 ± 2.4 µM
- Cytotoxicity (MonoMac-6 Cells) IC50 (µM) (MonoMac-6 Cells): cytotoxic
- IC50 at 24 h [3]: 19.2 ± 2.1 µM
- Cytotoxicity (THP-1 Cells) IC50 (µM) (THP-1 Cells): cytotoxic
